Test results published in PMC3820767, “Turning Defense into Offense: Defensin Mimetics as Novel Antibiotics Targeting Lipid II” (PLoS Pathogens, 2013).

Assays:
[1] = Cytotoxicity by MTT assay; assay type: cell-based, human; settings: human, Caco-2 cells; concentration resulting in 50% cell survival, MTT, 24 h; read-out: Cytotoxicity (C50%) Caco-2
[2] = tested on: S. aureus MMX100 (ATCC 29213); experiment: Macromolecular synthesis assays (mechanism of action); assay type: cell-based, Staphylococcus aureus
Description: Macromolecular synthesis inhibition by BAS00127538 and 1499-1221 were investigated using S. aureus MMX100 (ATCC 29213). Cells were grown at 35°C overnight on Tryptic Soy Agar Broth (Remel, Lenexa, KS), and growth from the plate was used to inoculate 15 ml of Mueller Hinton Broth. The culture was grown to early exponential growth phase (OD600 = 0.2 to 0.3) while incubating in a shaker at 35°C and 150 rpm. For each macromolecular assay, the test agents 1499-1221 and BAS00127538 were added at either 0, 0.25, 0.5, 1, 2, or 4, -fold their respective MIC values for S. aureus ATCC 29213.
For DNA and protein synthesis, 100 µl of cell culture reaching early exponential phase was added to triplicate wells containing various concentrations of test compound or control antibiotics (2.5 µl) at 40× the final concentration in 100% DMSO (0.1% methanol in water for Rifampicin). A 2.5% DMSO treated culture served as the “no drug” control for all experiments. Cells were added in 1.25× strength MHB to account for the volume of drug added to each reaction, or in M9 minimal medium for protein synthesis reactions. Following a 5 min incubation at room temperature either [^3H]Thymidine (DNA synthesis) or [^3H]Leucine (protein synthesis) was added at 0.5–1.0 µCi per reaction, depending on the experiment. Reactions were allowed to proceed at room temperature for 15–40 min and then stopped by adding 12 µl of cold 5% trichloroacetic acid (TCA) or 5% TCA/2% casamino acids (protein synthesis). Reactions were incubated on ice for 30 min and the TCA precipitated material was collected on a 25 mm GF/1.2 µm PES 96 well filter plate (Corning). After washing five times with 200 µl per well of cold 5% TCA, the filters were allowed to dry, and then counted using a Packard Top Count microplate scintillation counter.
For cell wall synthesis, bacterial cells in early exponential growth phase were transferred to M9 minimal medium and added to 1.5 ml eppendorf tubes (100 µl/tube) containing various concentrations of test compound or control antibiotics (2.5 µl) at 40× the final concentration in 100% DMSO as described above. Following a 5 min incubation at 37°C, [^14C] N-acetyl-glucosamine (0.4 µCi/reaction) was added to each tube and incubated for 45 min in a 37°C heating block. […] After washing three times with 5 ml of 0.1% SDS, the filters were rinsed two times with 5 ml of deionized water, allowed to dry, and then counted using a Beckman LS3801 liquid scintillation counter.
For lipid synthesis, bacterial cells were grown to early exponential growth phase in MHB and 100 µl was added to 1.5 ml Eppendorf tubes (in triplicate) containing various concentrations of test compound or control antibiotics as described above. […] Samples were then counted via liquid scintillation counting. […]

[3] = tested on: S. aureus ATCC 29213; experiment: Murine peritoneal sepsis model; assay type: in vivo, C57BL/6J mice; settings: mice n = 5, i.p. treatment 1 h and 4 h post-infection; compound […], vancomycin/lysostaphin 5 mg/kg
Description: Mice were fed standard chow (Harlan Laboratories) and water ad libitum. […] Animals were closely observed during a period of 24 hours and mice that show signs of severe sepsis were humanely euthanized. Blood samples were collected by retro-orbital puncture at the indicated intervals post-infection using lithium-heparin polystyrene tubes to prevent coagulation. […] Whole blood samples and spleen homogenates were serially diluted and plated onto LB agar plates.

## CN1/C(=C/C=C/c2cc(-c3ccccc3)cc(-c3ccccc3)[o+]2)C(C)(C)c2ccccc21 [BAS00127538, 2,4-diphenyl-6-[(1E)-3-[(2E)-1,3,3-trimethyl-2,3-dihydro-1H-indol-2-ylidene]prop-1-en-1-yl]-1$l^4-pyran-1-ylium]
[1]
  IC50 at 24 h: 2.7 µM
[2]; 1× MIC
  inhibition of DNA, lipid or protein synthesis: not DNA, lipid or protein synthesis
[2]; 1× MIC, [14C]N-acetyl-glucosamine incorporation
  inhibition of cell wall synthesis: significantly inhibited cell wall synthesis
[2]; elevated concentrations (above 1× MIC)
  DNA, protein and lipid synthesis: reduced
[3]
  survival: 4 out of five animals

## CN(C)c1ccc(/C=C/c2cc(-c3ccccc3)[o+]c(-c3ccccc3)c2)cc1 [Compound 1499-1221]
[1]
  IC50 at 24 h: 8.9 µM
[2]; mechanism of action studies, Figure S4
  likely primary mechanism of action: membrane perturbation
